Test results from patent US20200253929A1, “TREATMENT OF EPILEPSY” (priority 2017, published 2020).

Experiments:
[1] = molecular target: T1, Nav1.5 channel (Homo sapiens, UniProt Q14524); test: Cardiotoxicity fluorescence-based assay, Nav1.5 channel; type: cell-based; settings: HEK293 cells
T1 construct: expressed in transfected cells; host or cells: HEK293
Method: Fluorescence-based assays were performed using HEK293 cell lines that stably express the Nav1.5-channel, Cav1.2-channel or hERG K+-channel, using FMP Red Dye (Molecular Devices), calcium-sensitive fluorescent dye Fluo-4 (Invitrogen) and FIuxOR™ reagent (Invitrogen), respectively, and a FLIPR Tetra High-Throughput Cellular Screening System (Molecular Devices), according to manufacturer's protocols (Molecular Devices). Tetrodotoxin (TTX), israpidine and nicarpidine, and astemizole and haloperidol were used as standard sodium channel, calcium channel, and hERG channel blockers. Data were analyzed using Genedata Screener.

[2] = molecular target: T2, CYP3A4 (Homo sapiens, UniProt P08684); test: CYP450 enzyme inhibition assay, CYP3A4; type: in vitro ADME; settings: human liver microsomes; for IC50: testosterone probe
T2 construct: containing Human Liver Microsomes (HLM) (0.5 mg/mL); from tissue; host or cells: human liver microsomes
T2 sequence (P08684 whole entry): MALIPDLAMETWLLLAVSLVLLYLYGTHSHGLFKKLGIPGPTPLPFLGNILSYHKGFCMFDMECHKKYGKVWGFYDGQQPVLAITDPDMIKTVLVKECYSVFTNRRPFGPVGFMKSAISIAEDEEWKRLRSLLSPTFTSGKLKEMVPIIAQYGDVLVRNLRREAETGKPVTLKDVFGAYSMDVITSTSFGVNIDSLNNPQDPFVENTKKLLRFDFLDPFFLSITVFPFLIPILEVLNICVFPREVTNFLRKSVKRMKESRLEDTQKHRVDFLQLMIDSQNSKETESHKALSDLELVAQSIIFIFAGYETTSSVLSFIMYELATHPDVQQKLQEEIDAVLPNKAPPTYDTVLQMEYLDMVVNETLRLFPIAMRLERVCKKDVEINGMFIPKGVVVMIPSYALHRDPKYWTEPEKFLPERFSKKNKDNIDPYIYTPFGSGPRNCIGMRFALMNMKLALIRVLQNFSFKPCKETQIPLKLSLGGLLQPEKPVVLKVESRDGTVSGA
Method: Protocol was based on literature [Perez-Del Palacio et al. (2017) Front Pharmacol 8, 202]. Assessment of CYP450 inhibition was conducted in 96-well plate format at 37° C. Test compounds were dissolved in DMSO/acetonitrile (2 μL) and diluted in 98 μL NADPH solution (2 mM). Reactions were started by addition of 100 μL potassium phosphate buffer (200 mM, pH 7.4) containing Human Liver Microsomes (HLM) (0.5 mg/mL). Probe reactions for CYP3A4, CYP2D6 and CYP2C9 were conducted with 50 μM testosterone, 22 μM dextromethorphan and 10 μM diclofenac for 15 min. Reactions were terminated with the addition of a quench solution (90 μL) of acetonitrile containing internal standards for LC-MS/MS determination (60 ppb cortisone, 100 ppb 4′-hydroxydiclofenac 13C6, 60 ppb levallorphan).

[3] = Kinetic solubility assay; type: physicochemical; settings: for Kinetic solubility: 2 h incubation, absorbance 620 nm
Method: Protocol was based on literature [Perez et al. (2015) J Biomol Screen 20, 254-264]. The kinetic solubility assay was conducted in 96-well, flat-bottom, transparent polystyrene plates (Costar 9018, Corning, Tewksbury, Mass.). Six two-fold serial dilutions of an initial 10 mM test compound solution were prepared in DMSO. After a 2 h incubation period (to avoid missing slow precipitation) absorbance was measured at 620 nm by an EnVision multilabel plate reader. The kinetic solubility was estimated from the concentration of test compound that produced an increase in absorbance above the background levels (i.e. 1% DMSO in buffer).

[4] = Plasma protein binding assay (rapid equilibrium dialysis); type: in vitro ADME; settings: for Protein binding: rapid equilibrium dialysis, 5 μM, 5 h
Method: Protocol was based on literature [Kumar Singh et al. (2012)1 Bioeq. Bioay. S14]. Rapid equilibrium dialysis was performed with RED device inserts (Thermo Scientific, Meridian Rd., Rockford, Ill.) containing dialysis membrane with a molecular weight cut-off of 8,000 Daltons. Serum (200 μL) containing test compound (5 μM) was added to the serum chamber of the insert and 350 μL of buffer was added to the buffer chamber of the insert. Dialysis was done at 37° C. with shaking at 100 rpm for 5 h. Following dialysis, an aliquot of 50 μL was removed from each well (plasma and buffer side) and diluted with an equal volume of opposite matrix to nullify the matrix effect. Then a fraction (50 μL) of each dialyzed sample was crashed with 150 μL of acetonitrile containing internal standard and vortexed for 1 min. The samples were centrifuged at 13300 rpm at 4° C. for 12 min and 100 μL of supernatant was used for LC-MS/MS analysis.

T1 sequence (Q14524 whole entry): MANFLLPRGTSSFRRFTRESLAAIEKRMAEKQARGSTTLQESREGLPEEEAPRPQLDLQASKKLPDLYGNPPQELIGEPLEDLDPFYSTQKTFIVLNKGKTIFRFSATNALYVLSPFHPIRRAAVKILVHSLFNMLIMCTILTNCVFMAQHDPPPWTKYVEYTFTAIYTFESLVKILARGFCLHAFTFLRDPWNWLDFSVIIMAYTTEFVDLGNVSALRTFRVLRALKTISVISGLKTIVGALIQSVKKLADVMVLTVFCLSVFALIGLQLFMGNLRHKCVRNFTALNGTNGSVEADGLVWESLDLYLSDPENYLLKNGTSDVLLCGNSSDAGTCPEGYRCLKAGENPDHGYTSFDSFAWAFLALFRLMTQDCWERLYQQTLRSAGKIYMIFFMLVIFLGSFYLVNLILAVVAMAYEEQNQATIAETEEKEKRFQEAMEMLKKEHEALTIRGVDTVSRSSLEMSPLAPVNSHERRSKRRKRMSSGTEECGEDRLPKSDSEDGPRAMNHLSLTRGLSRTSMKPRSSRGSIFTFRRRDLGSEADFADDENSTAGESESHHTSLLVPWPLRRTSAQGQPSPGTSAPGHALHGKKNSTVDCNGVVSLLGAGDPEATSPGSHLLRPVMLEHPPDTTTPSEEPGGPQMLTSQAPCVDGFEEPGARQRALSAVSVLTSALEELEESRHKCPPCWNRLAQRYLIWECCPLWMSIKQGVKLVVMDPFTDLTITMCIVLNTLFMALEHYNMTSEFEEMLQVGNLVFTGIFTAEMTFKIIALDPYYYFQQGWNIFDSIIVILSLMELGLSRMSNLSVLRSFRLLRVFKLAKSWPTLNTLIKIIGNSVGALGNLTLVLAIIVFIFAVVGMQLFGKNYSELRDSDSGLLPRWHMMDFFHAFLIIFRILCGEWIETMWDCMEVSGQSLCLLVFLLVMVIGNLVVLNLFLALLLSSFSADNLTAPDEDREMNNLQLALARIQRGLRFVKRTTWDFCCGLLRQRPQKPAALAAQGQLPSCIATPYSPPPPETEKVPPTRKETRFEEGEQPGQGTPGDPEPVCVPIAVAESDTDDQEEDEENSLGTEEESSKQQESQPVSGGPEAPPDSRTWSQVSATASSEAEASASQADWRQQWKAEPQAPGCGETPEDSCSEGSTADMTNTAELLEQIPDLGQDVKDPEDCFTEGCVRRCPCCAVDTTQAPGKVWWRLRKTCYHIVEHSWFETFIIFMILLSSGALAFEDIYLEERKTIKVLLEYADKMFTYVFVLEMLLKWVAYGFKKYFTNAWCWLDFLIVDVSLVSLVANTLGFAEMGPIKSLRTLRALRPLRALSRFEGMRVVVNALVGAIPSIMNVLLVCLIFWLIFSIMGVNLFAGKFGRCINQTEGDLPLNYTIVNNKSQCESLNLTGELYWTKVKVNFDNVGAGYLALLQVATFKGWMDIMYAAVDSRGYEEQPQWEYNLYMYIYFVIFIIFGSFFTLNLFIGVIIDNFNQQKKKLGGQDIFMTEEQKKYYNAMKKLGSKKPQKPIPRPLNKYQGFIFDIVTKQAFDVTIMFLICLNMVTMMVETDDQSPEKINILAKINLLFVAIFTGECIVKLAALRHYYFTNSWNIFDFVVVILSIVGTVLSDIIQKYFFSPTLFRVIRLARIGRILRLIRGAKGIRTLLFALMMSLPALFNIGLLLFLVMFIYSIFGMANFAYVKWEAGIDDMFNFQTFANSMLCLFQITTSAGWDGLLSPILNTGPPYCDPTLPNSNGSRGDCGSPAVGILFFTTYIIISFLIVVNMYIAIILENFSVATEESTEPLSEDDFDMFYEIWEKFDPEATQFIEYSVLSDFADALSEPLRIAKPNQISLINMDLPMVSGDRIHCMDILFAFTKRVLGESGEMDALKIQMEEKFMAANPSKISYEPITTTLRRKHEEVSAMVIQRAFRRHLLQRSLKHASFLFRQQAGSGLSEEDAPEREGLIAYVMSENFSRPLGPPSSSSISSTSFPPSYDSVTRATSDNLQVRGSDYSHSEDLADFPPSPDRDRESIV

Compound	Cardiotoxicity Nav1.5 channel, effect [1]	IC50 [1]	CYP3A4, effect [2]	IC50 [2]	Kinetic solubility, rating [3]	Kinetic solubility [3]	Protein binding assay recovery [4]	Protein binding, percentage of free drug rating [4]	Protein binding [4]	Protein binding ([4]; listed as Pseurotin A2)	Protein binding ([4]; listed as Azaspirofuran A)
CC/C=C\[C@H](O)[C@H](O)C1=C(C)C(=O)[C@]2(O1)C(=O)N[C@](OC)(C(=O)c1ccccc1)[C@H]2O [pseurotin A2]	No effect	> 50 µM	No effect	> 88 µM	Acceptable	>100 µM	100%	High	37%	36.53%	
CCc1ccc(C2=C(C)C(=O)C3(O2)C(=O)NC(OC)(C(=O)c2ccccc2)C3O)o1 (centres unmarked) [azaspirofuran A]	Low	39.1 µM	No effect	> 88 µM	Acceptable	>100 µM	66.7%	Low	95%		95.42%
